The values that follow come from ChEMBL document CHEMBL3616418, “Discovery of Bivalent Kinase Inhibitors via Enzyme-Templated Fragment Elaboration” (ACS Med Chem Lett, 2015).

Where only a bound is given, the exact number is not on record here.

For experiment [1], the target named is Tyrosine-protein kinase HCK (Homo sapiens, UniProt P08631). The experiment can be described thus: Inhibition of Hck (unknown origin).
Experiment [2] addresses Tyrosine-protein kinase ABL1 (Homo sapiens, UniProt P00519). The experiment can be described thus: Inhibition of c-Abl (unknown origin).
The target in experiment [3] is Proto-oncogene tyrosine-protein kinase Src (Homo sapiens, UniProt P12931, C277S/C483S). The experiment can be described thus: Inhibition of c-Src C277S, C483S, […] mutant (unknown origin).

By Ki is commonly meant a measure of affinity in units of concentration, obtained from inhibition or displacement. Higher therefore signals a looser hold on the target.

Consider `C=CC(=O)N1CCCC1c1ccco1` (stereo not drawn), for which the Ki in experiment [1] and in experiment [2] was above 1250 µM in each case.
Compound `O=C(CCS)Nc1cccc(Nc2nccc(Nc3cc(C4CC4)[nH]n3)n2)c1` registered a Ki in experiment [3] of 0.2 µM.
